Calls of active or inactive are those of the source. No cut-off for these calls is given here.
target: T1, Peroxisome proliferator-activated receptor alpha (Homo sapiens, UniProt Q07869); experiment: Agonist activity at human PPARalpha measured by dual luciferase reporter gene assay; conditions: not given
T1 sequence (Q07869 whole entry): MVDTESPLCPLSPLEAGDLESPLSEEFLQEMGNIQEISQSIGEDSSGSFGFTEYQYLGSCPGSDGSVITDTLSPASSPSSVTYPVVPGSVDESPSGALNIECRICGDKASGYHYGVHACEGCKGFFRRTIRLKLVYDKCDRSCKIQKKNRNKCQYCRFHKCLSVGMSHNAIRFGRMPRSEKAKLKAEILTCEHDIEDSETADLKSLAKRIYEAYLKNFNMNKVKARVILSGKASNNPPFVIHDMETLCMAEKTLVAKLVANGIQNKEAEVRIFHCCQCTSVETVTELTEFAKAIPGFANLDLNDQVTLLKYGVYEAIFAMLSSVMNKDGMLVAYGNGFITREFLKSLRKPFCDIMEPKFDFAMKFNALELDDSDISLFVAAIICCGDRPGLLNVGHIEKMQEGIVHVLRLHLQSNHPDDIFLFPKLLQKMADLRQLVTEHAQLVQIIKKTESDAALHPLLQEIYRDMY

| Structure (SMILES) | EC50 [µM] |
| --- | --- |
| COc1ccc2ccc(-c3cccc(OCc4ccc(OCC(=O)O)c(F)c4)c3)cc2c1 | 15.6 |
| COc1ccc(/C=C/c2cc(OC)cc(OCc3ccc(OC(C)C(=O)O)c(F)c3)c2)cc1 (stereo not given) | 8.72 |
| COc1ccc(/C=C/c2cc(OC)cc(OCc3ccc(OCC(=O)O)c(C)c3)c2)cc1 | 7.6 |
| O=C(O)COc1ccc(COc2cc(/C=C/c3ccc(OCC4CC4)cc3)cc(OCC3CC3)c2)cc1F | 10.3 |
| COc1ccc2cc(-c3cccc(OCc4ccc(OCC(=O)O)c(F)c4)c3)ccc2c1 | 10.5 |
| Cc1ccc2[nH]c(-c3cccc(OCCCCCCCC(=O)O)c3)nc2c1 | 6.3 |
| O=C(O)COc1ccc(COc2cccc(-c3ccc4cc(OCC5CC5)ccc4c3)c2)cc1F | 9.6 |

target: T2, Peroxisome proliferator-activated receptor gamma (Homo sapiens, UniProt P37231); experiment: Agonist activity at human PPARgamma measured by dual luciferase reporter gene assay; conditions: not given
T2 sequence (P37231 whole entry): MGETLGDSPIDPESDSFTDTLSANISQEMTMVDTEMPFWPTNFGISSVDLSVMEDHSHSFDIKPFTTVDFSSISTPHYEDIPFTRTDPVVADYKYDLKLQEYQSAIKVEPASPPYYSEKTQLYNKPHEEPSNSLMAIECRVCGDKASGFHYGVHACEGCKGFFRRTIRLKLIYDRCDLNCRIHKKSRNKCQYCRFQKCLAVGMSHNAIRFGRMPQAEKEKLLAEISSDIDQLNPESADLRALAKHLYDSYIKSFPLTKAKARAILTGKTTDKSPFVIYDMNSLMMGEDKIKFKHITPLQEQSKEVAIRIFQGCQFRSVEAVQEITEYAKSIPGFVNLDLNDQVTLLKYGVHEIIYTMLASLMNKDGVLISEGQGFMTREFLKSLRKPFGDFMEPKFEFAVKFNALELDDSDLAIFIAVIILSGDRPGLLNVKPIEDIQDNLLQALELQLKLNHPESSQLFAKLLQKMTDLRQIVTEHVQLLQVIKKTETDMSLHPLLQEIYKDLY

| Structure (SMILES) | EC50 [µM] |
| --- | --- |
| COc1ccc(/C=C/c2cc(OC)cc(OCc3ccc(OC(C)C(=O)O)c(F)c3)c2)cc1 (stereo not given) | 18.2 |
| COc1ccc(/C=C/c2cc(OC)cc(OCc3ccc(OCC(=O)O)c(C)c3)c2)cc1 | 20.7 |
| O=C(O)COc1ccc(COc2cc(/C=C/c3ccc(OCC4CC4)cc3)cc(OCC3CC3)c2)cc1F | 24.5 |
| Cc1ccc2[nH]c(-c3cccc(OCCCCCCCC(=O)O)c3)nc2c1 | 10.2 |

target: T3, Peroxisome proliferator-activated receptor delta (Homo sapiens, UniProt Q03181); experiment: Agonist activity at human PPARdelta measured by dual luciferase reporter gene assay; conditions: not given
T3 sequence (Q03181 whole entry): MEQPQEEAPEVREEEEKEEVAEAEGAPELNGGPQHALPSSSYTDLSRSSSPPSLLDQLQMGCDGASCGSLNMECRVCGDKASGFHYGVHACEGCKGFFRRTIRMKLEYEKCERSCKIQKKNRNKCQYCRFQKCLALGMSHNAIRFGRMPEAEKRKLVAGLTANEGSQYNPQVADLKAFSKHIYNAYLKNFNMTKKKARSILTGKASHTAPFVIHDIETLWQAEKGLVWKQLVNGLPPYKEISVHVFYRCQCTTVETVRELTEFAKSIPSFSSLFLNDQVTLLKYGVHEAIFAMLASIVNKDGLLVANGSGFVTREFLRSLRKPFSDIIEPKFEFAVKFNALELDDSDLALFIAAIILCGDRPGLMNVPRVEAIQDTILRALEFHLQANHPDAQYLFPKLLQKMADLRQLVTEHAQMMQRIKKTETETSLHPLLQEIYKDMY

| Structure (SMILES) | EC50 [µM] |
| --- | --- |
| COc1ccc2ccc(-c3cccc(OCc4ccc(OCC(=O)O)c(F)c4)c3)cc2c1 | 10.8 |
| COc1ccc(/C=C/c2cc(OC)cc(OCc3ccc(OC(C)C(=O)O)c(F)c3)c2)cc1 (stereo not given) | 4.5 |
| COc1ccc(/C=C/c2cc(OC)cc(OCc3ccc(OCC(=O)O)c(C)c3)c2)cc1 | 5.16 |
| O=C(O)COc1ccc(COc2cc(/C=C/c3ccc(OCC4CC4)cc3)cc(OCC3CC3)c2)cc1F | 8.37 |
| COc1ccc2cc(-c3cccc(OCc4ccc(OCC(=O)O)c(F)c4)c3)ccc2c1 | 7.8 |
| O=C(O)COc1ccc(COc2cccc(-c3ccc4cc(OCC5CC5)ccc4c3)c2)cc1F | 7.2 |

tested on: Mus musculus; experiment: Hypolipidemic activity in Triton1339W-induced hyperlipidemic ICR mouse model assessed as reduction in plasma TG level at 80 mg/kg, administered once daily for 5 days; type: functional, organism-based; conditions: time 5.0 day

| Structure (SMILES) | Activity |
| --- | --- |
| COc1ccc(/C=C/c2cc(OC)cc(OCc3ccc(OC(C)C(=O)O)c(F)c3)c2)cc1 (stereo not given) | Active |
| COc1ccc(/C=C/c2cc(OC)cc(OCc3ccc(OCC(=O)O)c(C)c3)c2)cc1 | Active |
| O=C(O)COc1ccc(COc2cc(/C=C/c3ccc(OCC4CC4)cc3)cc(OCC3CC3)c2)cc1F | Active |

tested on: Mus musculus; experiment: Hypolipidemic activity in Triton1339W-induced hyperlipidemic ICR mouse model assessed as reduction in plasma TC level at 80 mg/kg, administered once daily for 5 days; type: functional, organism-based; conditions: time 5.0 day

| Structure (SMILES) | Activity |
| --- | --- |
| COc1ccc(/C=C/c2cc(OC)cc(OCc3ccc(OC(C)C(=O)O)c(F)c3)c2)cc1 (stereo not given) | Active |
| COc1ccc(/C=C/c2cc(OC)cc(OCc3ccc(OCC(=O)O)c(C)c3)c2)cc1 | Active |
| O=C(O)COc1ccc(COc2cc(/C=C/c3ccc(OCC4CC4)cc3)cc(OCC3CC3)c2)cc1F | Active |

tested on: Mus musculus; experiment: Protection against CCl4-induced liver fibrosis in male C57BL/6 mouse assessed as decrease in collagen area in liver at 250 mg/kg measured by masson staining; type: functional, organism-based; conditions: not given

| Structure (SMILES) | Activity |
| --- | --- |
| Cc1ccc(=O)n(-c2ccccc2)c1 | Active |

tested on: Mus musculus; experiment: Protection against CCl4-induced liver fibrosis in male C57BL/6 mouse assessed as decrease in hepatic hydroxyproline content at 250 mg/kg […]; type: functional, organism-based; conditions: not given

| Structure (SMILES) | Activity |
| --- | --- |
| Cc1ccc(=O)n(-c2ccccc2)c1 | Active |

Reference: ChEMBL document CHEMBL5154671 (Eur J Med Chem, 2022)
